pIC50: −log10 of the molar value.
Each compound was assayed against PAI-1 (Homo sapiens, UniProt P05121) (assay: PAI-1 assay (direct chromogenic assay, inhibitory activity of PAI-1 against uPA)). Conditions: substrate N-CBZ-VAL-GLY-ARG p-nitroanilide, 10 minute incubation at 37° C., read-out: PAI-1 inhibitory activity in vitro, IC50.
Assay type: biochemical
Protocol: The inhibitory activity of PAI-1 against uPA was measured by a direct chromogenic assay using the substrate N-CBZ-VAL-GLY-ARG p-nitroanilide. The tested compound was added to PAI-1 which had been diluted in activity assay buffer (0.05M Hepes, pH 7.5, 0.15M NaCl, containing 0.05% N-octyl-D-glucopyranoside and 250 μg/ml bovine serum albumin). After a 10 minute incubation at 37° C., uPA was added (0.04 units/assay), followed immediately by the addition of substrate. After reequilibration at 37° C., residual uPA activity was quantified by measuring the change in absorbance at 405 nm over 12 minutes. The concentration of active PAI-1 in the assays was the amount required to inhibit 80-85% of uPA as compared to samples containing uPA alone.
Compounds No. 1 to 37 were tested in the PAI-1 assay as described above.

Chain of PAI-1 (P05121 24-402): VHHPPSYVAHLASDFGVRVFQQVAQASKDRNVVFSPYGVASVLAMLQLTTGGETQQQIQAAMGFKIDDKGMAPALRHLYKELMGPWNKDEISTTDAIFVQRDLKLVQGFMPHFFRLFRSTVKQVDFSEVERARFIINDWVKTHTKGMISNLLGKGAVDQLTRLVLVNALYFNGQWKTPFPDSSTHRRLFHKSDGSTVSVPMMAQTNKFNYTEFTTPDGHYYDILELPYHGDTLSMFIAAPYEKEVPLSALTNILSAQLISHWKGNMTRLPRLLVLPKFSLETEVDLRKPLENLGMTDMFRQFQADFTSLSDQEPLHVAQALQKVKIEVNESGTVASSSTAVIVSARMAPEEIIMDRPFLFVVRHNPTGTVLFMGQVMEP

SMILES	pIC50
CCc1cc2c(cc1-c1csc(Nc3ccc(C(=O)O)cc3)n1)C(C)(C)CCC2(C)C [Compound 2, 4-{[4-(3-ethyl-5,5,8,8-tetramethyl-2-5,6,7,8-tetrahydronaphthyl)-1,3-thiazol-2-yl]amino}benzoic acid]	5.74
CCc1cc2c(cc1-c1csc(Nc3cccc(C(=O)O)c3)n1)C(C)(C)CCC2(C)C [Compound 3]	5.96
N#Cc1ccc(Nc2nc(-c3ccc(-c4ccccc4)cc3)cs2)cc1 [Compound 11, 4-{[4-(4-phenylphenyl)-1,3-thiazol-2-yl]amino}benzenecarbonitrile]	5.80

Reference: patent publication US6586453B2, “Substituted thiazoles and the use thereof as inhibitors of plasminogen activator inhibitor-1” (3-Dimensional Pharmaceuticals, Inc., priority 2000, dated 2003)
